Measurements published in PubChem BioAssay AID179 (DTP/NCI, 2004).
Several values for one entry are separate records, joined by “and”; a condition that tells them apart may be missing. Identical values can stand only once. Activity calls are given as the source filed them.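 How the source made its calls: active means compounds giving half or more protection of infected cells from virus-caused growth loss, again on retest; inactive means the rest.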

Test system: CEM cells HIV-1 protection, formazan growth assay
Test: NCI AIDS Antiviral Assay
Conditions: for IC50: measured here: growth of uninfected CEM cells
Summary of the method: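 Screen of anti-HIV-1 activity in human CEM cells using a formazan-based growth measurement at five drug concentrations. Hits with 50% or greater protection were repeated, and confirmation required reproducible complete protection.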

With CC(C)CCCC(C)[C@H]1CC[C@H]2[C@@H]3CC[C@H]4C[C@@H](CCC=C(c5cc(Cl)c(OCc6ccccc6[N+](=O)[O-])c(C(=O)O)c5)c5cc(Cl)c(OCc6ccccc6[N+](=O)[O-])c(C(=O)O)c5)CC[C@]4(C)[C@H]3CC[C@]12C (some centres not stated) the EC50 was > 200 µM and 120 µM, the outcome was “inactive” and the IC50 was > 200 µM and 166 µM.
For Cc1cc(=O)n2c3c(c4c(cc13)c(CO)cc(=O)n4C)OC2, the outcome was “inactive”.
Cc1ccc2nccc(/C=C/c3ccc(N(C)C)cc3)c2c1 was tested, and the EC50 was > 13.2 µM and the IC50 was 2.45 µM.
In the case of NC(=O)N/N=C(\CCC(=O)N(Cc1ccccc1)Cc1ccccc1)CC(=O)c1ccc(F)cc1, the EC50 is reported as > 200 µM and the IC50 is reported as > 200 µM.
With N#C/C(=C/N1CCNC1=S)C(N)=O the EC50 was > 200 µM and the IC50 was > 200 µM.
CCC/C=C/C=C\C(=O)O[C@@H]1[C@@H](C)[C@]2(O)[C@@H]3C=C(C)C(=O)[C@H]3CC(COC(C)=O)=C[C@H]2[C@@H]2C(C)(C)[C@]12OC(C)=O was tested, and the outcome was “inactive”.
In the case of O=C1/C(=C\c2ccc([N+](=O)[O-])cc2)N(S(=O)(=O)c2ccccc2)c2ncccc21, the EC50 is reported as > 200 µM and the IC50 is reported as 13.5 µM.
C=C(CN(C)C)C(=O)c1ccc(OC2OC(COC(C)=O)C(OC(C)=O)C(OC(C)=O)C2OC(C)=O)cc1 (configuration not stated) was tested, and the EC50 was > 200 µM and the IC50 was 3.24 µM.
In the case of CC1=NN(C(=O)c2ccc(Cl)cc2)C(=O)/C1=C/c1ccco1, the EC50 is reported as > 22.9 µM and the IC50 is reported as > 22.9 µM.
In the case of CCOC(=O)C(CC(C)C)NC(=O)C(Cc1ccc(N(CCCl)CCCl)cc1)NC(C)=O (configuration not stated), the EC50 is reported as > 10.7 µM and the IC50 is reported as 0.132 µM.
N#CCN1CCCCCC1 was tested, and the EC50 was > 200 µM and the IC50 was > 200 µM.
In the case of Cc1ccc(-n2nc(C(OC3OC(CO)C(O)C(O)C3O)C(O)CO)c3nc4cc(C)c(C)cc4nc32)cc1 (configuration not stated), the outcome is reported as “inactive”.
With CN1CSCSC1 the outcome was “inactive”.
COc1cccc2c(Nc3ccc(S(=O)(=O)NC(C)=O)cc3)c3ccc([N+](=O)[O-])cc3nc12 was tested, and the EC50 was > 141 µM and the IC50 was 95.5 µM.
COc1cc(N=Nc2cc(S(=O)(=O)O)c3cccnc3c2O)ccc1-c1ccc(N=Nc2cc(S(=O)(=O)O)c3cccnc3c2O)cc1OC showed an EC50 of 100 µM and an IC50 of 182 µM.
CC[n+]1c(-c2ccccc2)c2cc(N)ccc2c2ccc(N)cc21 was tested, and the EC50 was > 708 µM and the IC50 was 0.794 µM and 0.525 µM.
In the case of COC(=O)C1C(NCc2ccccc2)=CC(C)(C)C(C(=O)OC)C1c1ccccc1 (configuration not stated), the EC50 is reported as > 200 µM and the IC50 is reported as 166 µM.
O=C(NC(=Nc1ccccc1)SCSC(=Nc1ccccc1)NC(=O)c1ccccc1Cl)c1ccccc1Cl was tested, and the EC50 was > 200 µM and the IC50 was 30.9 µM.
In the case of COc1ccc(CNc2nc3cc(C(F)(F)F)ccc3nc2C)cc1OC, the EC50 is reported as > 19.1 µM and the IC50 is reported as 14.5 µM.
With NC(=O)C(CSSCC(NC(=O)OCc1ccccc1)C(N)=O)NC(=O)OCc1ccccc1 (configuration not stated) the EC50 was > 200 µM and the IC50 was 18.2 µM.
With O=C(O)CCCCSCCCCCCSCCCCC(=O)O the EC50 was > 141 µM and the IC50 was > 141 µM.
CCOC(C)=Nc1cc(OC)cc2c1NC(=O)CCS2 was tested, and the EC50 was > 200 µM and the IC50 was > 200 µM.
In the case of CN1N=C(N)c2cn(C3OC(COP(=O)(O)O)C(O)C3O)c3ncnc1c23 (configuration not stated), the EC50 is reported as > 57.5 µM and the IC50 is reported as 21.4 µM.
With Cc1ccc(C)c(NC(=O)CC2C(=O)Nc3ccccc3S2(=O)=O)c1 (configuration not stated) the EC50 was > 4.07 µM and the IC50 was > 4.07 µM.
With CN(C)CCNC(=O)c1cccc(NC(=O)c2ccccc2)c1[N+](=O)[O-] the EC50 was > 200 µM and the IC50 was > 200 µM.
In the case of COc1c(C(=O)/C(=N/Nc2ccc(C(=O)O)cc2)C(C)=O)c(O)cc2occc12, the EC50 is reported as > 200 µM and the IC50 is reported as 110 µM.
With CC(C)=Nn1cnc(C(=N)C#N)c1N the EC50 was > 200 µM and the IC50 was > 200 µM.
NC(=O)C1=CN(Cc2ccc(F)cc2)c2ccccc2C1S(=O)(=O)O (configuration not stated) was tested, and the outcome was “inactive” and the IC50 was 245 µM.
With COC(=O)C1=C(C)N(NC(=O)Nc2ccccc2)C2(N)N(NC(=O)Nc3ccccc3)C(C)=C(C(=O)OC)C12C(=O)OC (configuration not stated) the EC50 was > 31.6 µM and the IC50 was > 31.6 µM.
For COC(=O)C(=O)C(/C(=N/N)C(=O)Nc1ccccc1C(N)=O)c1nc2ccc([N+](=O)[O-])cc2[nH]c1=O (configuration not stated), the EC50 was > 501 µM and the IC50 was 204 µM.
In the case of COc1cc(C(c2c(O)c3ccccc3oc2=O)c2c(O)c3ccccc3oc2=O)ccc1O, the EC50 is reported as > 200 µM and the IC50 is reported as 56.2 µM.
For CN(CCC#N)c1ccc(/C=C(\C#N)c2ccc(Br)cc2)cc1, the EC50 was > 200 µM and the IC50 was 4.57 µM.
For CO/C(=N\N=C\c1cc(OC)ccc1OC)c1ccncc1, the EC50 was > 24 µM and the IC50 was > 24 µM.
For C[C@]12CCc3nn(-c4ccccc4)nc3C1CC[C@@H]1C2CC[C@]2(C)NC(=O)CCC12 (some centres not stated), the EC50 was > 23.4 µM and the IC50 was > 23.4 µM.
Cc1cn([C@H]2C[C@@H]3[C@@H](COC(CCN=[N+]=[N-])N3O)O2)c(=O)[nH]c1=O (some centres not stated) was tested, and the EC50 was 72.4 µM and the IC50 was > 200 µM.
CCC12CCCN(Cc3ccccc3)C1c1c(n(C)c3ccccc13)[C@H](C(=O)OC)C2 (some centres not stated) was tested, and the EC50 was > 12.6 µM and the IC50 was > 12.6 µM.
For O=C1CC(=O)NC(=NN2C(=O)CSC2c2ccccc2)N1 (configuration not stated), the EC50 was > 200 µM and the IC50 was > 200 µM.
In the case of COC(C)(C)[C@@H]1CCCN1C1=C(C)C(=O)OC1, the EC50 is reported as > 200 µM and the IC50 is reported as > 200 µM.
With COc1ccc(-c2nc3ccccc3c(=S)n2OC(C)=O)cc1 the EC50 was > 200 µM and the IC50 was 1.7 µM.
In the case of Nc1nc2ncc(CNc3ccc(C(=O)NC(CCC(=O)NC(CCC(=O)NC(CCC(=O)NC(CCC(=O)NC(CCC(=O)O)C(=O)O)C(=O)O)C(=O)O)C(=O)O)C(=O)O)cc3)nc2c(=O)[nH]1 (configuration not stated), the EC50 is reported as > 100 µM and the IC50 is reported as > 100 µM.
For C=CCOc1ccc(C2c3c([nH][nH]c3=O)CC(C)(O)C2C(=O)OC)cc1OC (configuration not stated), the EC50 was > 200 µM and the IC50 was > 200 µM.
With NC(=O)CCC(NC(=O)c1ccccc1SC(=O)CCCC[n+]1ccccc1)C(N)=O (configuration not stated) the EC50 was 20.4 µM and the IC50 was > 200 µM.
With O=CN(c1ccccc1)c1c([N+](=O)[O-])cc([N+](=O)[O-])c2c1=NCN=2 the EC50 was > 79.4 µM and the IC50 was > 79.4 µM.
O=C(CCc1nc(=S)[nH][nH]1)Nc1cccc(C(F)(F)F)c1 was tested, and the EC50 was > 22.9 µM and the IC50 was > 22.9 µM.
Cc1cc(C2(c3cc(C)c(O)c(CN(CC(=O)O)CC(=O)O)c3)OS(=O)(=O)c3ccccc32)cc(CN(CC(=O)O)CC(=O)O)c1O was tested, and the EC50 was 93.3 µM and the IC50 was > 100 µM.
In the case of O=NN(CCCl)C(=O)NCCCl, the EC50 is reported as > 1150 µM and the IC50 is reported as > 1150 µM.
COS(=O)(=O)OCCC(NC(=O)OCc1ccccc1)C(=O)OCc1ccccc1 (configuration not stated) was tested, and the EC50 was > 83.2 µM and the IC50 was > 83.2 µM.
CCCC(O)c1cn(-c2cccc(S(=O)(=O)O)c2)nn1 (configuration not stated) was tested, and the EC50 was > 832 µM and the IC50 was > 832 µM.
CNN1C(=O)c2c(N)c(C#N)c(-c3ccccc3)c(-c3ccccc3)c2C1=O gave an EC50 of 16.2 µM and an IC50 of 174 µM.
CCN(CC)CCn1c2c3ccccc3ccc2c2oc(=O)c3ccccc3c21 was tested, and the EC50 was > 16.2 µM and the IC50 was > 16.2 µM.
For CCCCOC(=O)OC1CCC2(C)CC3CCC2(OO3)C1(C)C (configuration not stated), the EC50 was > 200 µM and the IC50 was 0.977 µM.
CCCC(=O)OC1CN2CC[C@H](O)C2C(O)[C@@H]1O (some centres not stated) showed an EC50 of 2.29 µM and an IC50 of 955 µM.
With CC1(c2ccc3cccc(F)c3c2)OC(=O)c2ccccc21 (configuration not stated) the outcome was “inactive”.
For CCCCCSP(=S)(C(C)C)C(C)C, the EC50 was > 200 µM and the IC50 was 115 µM.
In the case of CCN(CC)c1ccc(/C=C2\CCc3ccc([N+](=O)[O-])cc3C2=O)cc1, the EC50 is reported as > 20 µM and the IC50 is reported as 1.07 µM.
Molecule COc1ccc(C2CC(=O)c3c(O)cc(OC4OC(COC5OC(C)C(O)C(O)C5O)C(O)C(O)C4O)cc3O2)cc1O (configuration not stated) has an EC50 of 138 µM and an IC50 of 191 µM.
For Cn1c(=O)oc2cc(C(=S)N3CCCCC3)ccc21, the EC50 was > 200 µM and the IC50 was > 200 µM.
For C[C@@H]1C[C@@H]2OC(=O)[C@]3(C)[C@H]2[C@@H](OC3(C)O)[C@]2(C)C(=O)C=C[C@@H]12 (some centres not stated), the EC50 was > 316 µM and the IC50 was 5.75 µM.
